Measurements: patent EP3570868B1, “[…] ANTIMICROBIAL PEPTIDES AND THEIR APPLICATIONS FOR THE TREATMENT AND PREVENTION OF MUSCU[…]” (Ustav Organicke Chemie a Biochemie AV CR, v.v.i., priority 2017, dated 2018)

What was measured:
[1] = test system: P.a. (clin. isolate Liberec); assay type: cell-based, Pseudomonas aeruginosa; conditions: 37° C for 20 h
Procedure, shortened: (§1)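 Exponential-phase cultures, diluted in fresh medium (BHI for E. faecalis, LB for the others), were added to peptides in LB at final 0.5 to 100 µmol.l^-1, ca 10^5 CFU per well. Plates were shaken at 37 °C for 20 h with A540 read every 15 min; MIC was taken from growth.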

[2] = test system: P.a. 5482; assay type: cell-based, Pseudomonas aeruginosa; conditions: 37° C for 20 h
Procedure, shortened: (§2)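 MIC, quantitative, from growth curves (A540 every 15 min, 20 h, 37 °C, continuous shaking). Inoculum ~10^5 CFU/well; peptide final 0.5–100 µmol.l^-1 in LB; E. faecalis pregrown in BHI, rest in LB. Tetracycline standard over same range.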

[3] = test system: Candida albicans ATCC MYA-2876; assay: Biofilm formation on the surface of a bone cement implant in femur heads; assay type: cell-based; conditions: two days, cement without peptide 4.4x10^5
Method: The resulting elastic paste is placed into a 2 ml plastic syringe (without needle) and pressed into the infected holes in the spongy part of the bone, where it polymerizes and hardens. For comparison, other similarly infected holes are filled with cement containing only an antibiotic or antimycotic agent. […] The mixture in an amount of 125 mg is mixed with liquid monomer (50-60 µl) and then pressed into the openings as described above. In another embodiment, the cements are applied to uninfected holes, allowed to harden, and then microbes are pipetted into the hole excavated between implants. From there they penetrate through bone tissue and settle on the implants with consequent formation of biofilms.
After two days, implants are removed with metal spikes and tweezers, mechanically cleaned from debris of bone tissue, and washed four times with physiological saline (0.5 ml) in plastic tubes to remove any residual planktonic microbes or bone cells from their surface. The implants in closed tubes with 0.4 ml saline are then sonicated four times for 3 min with occasional shaking. The of microbial biofilm on the surface of the implant is thus disrupted and microbes are loosed into the physiological saline. The resulting suspension is subsequently diluted using the tenfold serial dilution for culturing on agar. […]

[4] = test system: Bacillus subtilis; assay type: cell-based; conditions: B.s.; 37° C for 20 h
Procedure, shortened: as §1

[5] = test system: Escherichia coli; assay type: cell-based; conditions: E.c.; 37° C for 20 h
Procedure, shortened: as §1

[6] = test system: Candida albicans; assay type: cell-based; conditions: C.a.; 37° C for 20 h
[7] = test system: MRSA (clin. isolate Liberec); assay type: cell-based, Staphylococcus aureus; conditions: 37° C for 20 h
Procedure, shortened: as §1

[8] = test system: MRSA 6271; assay type: cell-based, Staphylococcus aureus; conditions: 37° C for 20 h
Procedure, shortened: as §2

[9] = test system: MRSA (clin. isolate Motol); assay type: cell-based, Staphylococcus aureus; conditions: 37° C for 20 h
Procedure, shortened: as §2

[10] = test system: E.f. (clin. isolate Motol); assay type: cell-based, Enterococcus faecalis; conditions: 37° C for 20 h
Procedure, shortened: as §2

[11] = test system: human red blood cells; assay: Determination of haemolytic activity; assay type: cell-based; conditions: human red blood cells (5% v/v), 1 h at 37 °C; concentration for lysis of 50% of erythrocytes
Procedure, shortened: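 Peptides at 2-400 µmol.1^-1 were incubated with 5% v/v human erythrocytes in physiological solution for 1 h at 37 °C; haemoglobin release measured as supernatant absorbance at 540 nm after centrifugation, with 0.2% Triton X-100 as 100% lysis. Reported as LC50, the concentration lysing 50% of cells.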

[12] = test system: Candida glabrata DSY565; assay: Biofilm formation on the surface of a bone cement implant in femur heads; assay type: cell-based; conditions: two days, cement without peptide 1.3x10^6
Method: (§3) The resulting elastic paste is placed into a 2 ml plastic syringe (without needle) and pressed into the infected holes in the spongy part of the bone, where it polymerizes and hardens. For comparison, other similarly infected holes are filled with cement containing only an antibiotic or antimycotic agent. For comparison, a Vancogenx® cement (Tecresa S. p. A., Italy) is used, made from a mixture of a powdered polymer component containing vancomycin and gentamicin. The mixture in an amount of 125 mg is mixed with liquid monomer (50-60 µl) and then pressed into the openings as described above. In another embodiment, the cements are applied to uninfected holes, allowed to harden, and then microbes are pipetted into the hole excavated between implants. From there they penetrate through bone tissue and settle on the implants with consequent formation of biofilms.
After two days, implants are removed with metal spikes and tweezers, mechanically cleaned from debris of bone tissue, and washed four times with physiological saline (0.5 ml) in plastic tubes to remove any residual planktonic microbes or bone cells from their surface. The implants in closed tubes with 0.4 ml saline are then sonicated four times for 3 min with occasional shaking. The of microbial biofilm on the surface of the implant is thus disrupted and microbes are loosed into the physiological saline. […]

[13] = test system: Candida albicans (clin. isolate Olomouc); assay: as above; assay type: cell-based; conditions: two days, cement without peptide 8.0x10^4
Method: as §3
After two days, implants are removed with metal spikes and tweezers, mechanically cleaned from debris of bone tissue, and washed four times with physiological saline (0.5 ml) in plastic tubes to remove any residual planktonic microbes or bone cells from their surface. The implants in closed tubes with 0.4 ml saline are then sonicated four times for 3 min with occasional shaking. The of microbial biofilm on the surface of the implant is thus disrupted and microbes are loosed into the physiological saline. The resulting suspension is subsequently diluted using the tenfold serial dilution for culturing on agar.
Evaluation of the effect of antimicrobial peptides on the formation of microbial biofilm on the surface of the implant made of the bone cement.

[14] = test system: Candida albicans yeast (clinical isolate Olomouc); assay: Comparison of two similar halictin peptides for biofilm formation on the implant surface (yeast pipetted into a hole between implants); assay type: cell-based; conditions: 3.5 mg peptide in 100 mg powder cement component; two days; implant without peptide 1.8 × 10^3
Method: The experiment was performed under similar conditions as described in Example 5. Here, 100 mg of the powder cement component was used to prepare a paste, which was mixed with in 3.5 mg of peptide XIII and subsequently 52 µl of liquid component. The resulting paste was thoroughly mixed and then pressed into a hole prepared in the spongy part of the bone. To a next hole in the spongy part of the same bone a paste was pressed, containing comparative peptide Hal 2/4 (3.5 mg) with the sequence H-[…]NH2, which was also prepared from 100 mg of the powder component and 52 µl of the liquid component. The third hole was filled with paste without peptide prepared from the same amount of components. The Candida albicans yeast (clinical isolate Olomouc), grown in YPG, was pipetted in the hole excavated between implants equidistant (approximately 1 cm) from each. From there, the yeast penetrated through the bone tissue and was deposited on the implant with consequent formation of biofilms.
Then the implants in closed tubes with 0.4 ml of saline were treated ultrasonically four times for three minutes with occasional shaking. This way, microbial biofilm on the surface of the implant was disrupted and microbes loosed into the physiological saline. The resulting suspension was then diluted in a decimal dilution series for culturing on agar. […]

[15] = test system: S.e. (clin. isolate Motol); assay type: cell-based, Staphylococcus epidermidis; conditions: 37° C for 20 h
Procedure, shortened: as §2

SMILES: CC[C@H](C)[C@H](NC(=O)[C@H](CCCCN)NC(=O)[C@H](CCCCN)NC(=O)[C@@H](CC(C)C)NC(=O)[C@H](CC(C)C)NC(=O)[C@H](CCCCN)NC(=O)[C@H](CCSC)NC(=O)[C@H](Cc1c[nH]c2ccccc12)NC(=O)[C@H](CCCCN)NC(=O)CN)C(=O)N[C@@H](CC(C)C)C(=O)N[C@@H](CCCCN)C(N)=O [XIII]
- Antimicrobial activity MIC [1]: 32,0 µmol.l^-1
- Antimicrobial activity MIC [2]: 5,0 µmol.l^-1
- CFU/implant [3]: 6.0x10^3 CFU/implant
- Antimicrobial activity MIC [4]: 2,8 µmol.l^-1
- Antimicrobial activity MIC [5]: 10,0 µmol.l^-1
- Antimicrobial activity MIC [6]: 8,0 µmol.l^-1
- Antimicrobial activity MIC [7]: 13,3 µmol.l^-1
- Antimicrobial activity MIC [8]: 18,7 µmol.l^-1
- Antimicrobial activity MIC [9]: 32,0 µmol.l^-1
- Antimicrobial activity MIC [10]: >100 µM
- Hemolytic activity LC50 [11]: >400 µM
- CFU/implant [12]: 2.4x10^3 CFU/implant
- CFU/implant [13]: 0 CFU/implant
- number of colonies from the surface of the implant [14]: zero
- Antimicrobial activity MIC [15]: 4,0 µmol.l^-1
